Test results from PubChem BioAssay (NCI).
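Protocol summary: plate cells (96-well), add compound at 5 concentrations, incubate 48 h, interpolate endpoints linearly. GI50 marks 50% less growth. The concentration for full growth arrest is given as TGI.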

How the values were obtained:
Assay in all cases: NCI tumour cell line growth inhibition, 48 h
HL-60(TB) leukemia = test system: HL-60(TB) leukemia
HCT-116 colon = test system: HCT-116 colon
TK-10 renal = test system: TK-10 renal
HCT-15 colon = test system: HCT-15 colon
MOLT-4 leukemia = test system: MOLT-4 leukemia
SF-295 CNS = test system: SF-295 CNS
SK-OV-3 ovarian = test system: SK-OV-3 ovarian
MDA-MB-231 breast = test system: MDA-MB-231 breast
NCI/ADR-RES ovarian = test system: NCI/ADR-RES ovarian
HS 578T breast = test system: HS 578T breast

SMILES | TGI (HL-60(TB) leukemia) [µM] | TGI (HCT-116 colon) [µM] | TGI (TK-10 renal) [µM] | TGI (HCT-15 colon) [µM] | TGI (MOLT-4 leukemia) [µM] | TGI (SF-295 CNS) [µM] | TGI (SK-OV-3 ovarian) [µM] | GI50 (SK-OV-3 ovarian) [µM] | GI50 (MDA-MB-231 breast) [µM] | TGI (MDA-MB-231 breast) [µM] | GI50 (HCT-116 colon) [µM] | GI50 (NCI/ADR-RES ovarian) [µM] | TGI (NCI/ADR-RES ovarian) [µM] | GI50 (TK-10 renal) [µM] | GI50 (HCT-15 colon) [µM] | GI50 (MOLT-4 leukemia) [µM] | GI50 (HS 578T breast) [µM] | TGI (HS 578T breast) [µM] | GI50 (SF-295 CNS) [µM] | GI50 (HL-60(TB) leukemia) [µM]
O=C1/C(=C/c2ccc(Cl)cc2)CCC1CCN1CCOCC1 (centres undefined) | 85.2 | > 100 | > 100 | > 100 | 82.6 | > 100 |  |  |  |  |  |  |  |  |  |  |  |  |  | 
CC(=O)Oc1c2c(c(O)c3ccccc13)C(n1cnc3c(ncn3C3OC(CO)C4OC(C)(C)OC43)c1=N)CCC2 (centres undefined) | 22.3 |  | 35.9 | 29.3 | 35.9 | 27 | 33.1 |  |  |  |  |  |  |  |  |  |  |  |  | 
COc1ccc2c(c1)C(=O)c1c-2c(N2CCN(C(=O)CNCCNCCO)CC2)nc2ccccc12 |  | 3.07 | 32.9 | 22.4 | 6.61 | 32.3 | 28.2 | 13.7 | 3.23 | 12.7 | 1.59 | 15 | 33.1 | 13.7 | 7.81 | 2.19 | 5.92 | 25.7 | 12.4 | 
CCOc1ccc(NC(=O)C(=O)CC(=O)c2c(C)n([O-])c3ccccc3[n+]2=O)cc1 | > 100 | > 100 | > 100 | > 100 | > 100 | > 100 | > 100 |  |  |  |  |  |  |  |  |  |  |  |  | 
O=c1ccn([C@H]2CSC[C@@H](CO)C2)c(=O)[nH]1 | > 100 | > 100 | > 100 | > 100 | > 100 |  | > 100 |  |  |  |  |  |  |  |  |  |  |  |  | 
OCC1OC(c2nc(C3=NCCCN3)cs2)C(O)C1O (centres undefined) | > 100 | > 100 | > 100 | > 100 | > 100 | > 10 | > 100 |  |  |  |  |  |  |  |  |  |  |  |  | 
Cc1[nH]c2ccccc2c1C(=O)/C=C/c1ccccc1O | > 100 | > 100 | > 100 |  | > 100 | > 100 | > 100 |  |  |  |  |  |  |  |  |  |  |  |  | 
O=C(CSc1nc2ccccc2nc1-c1ccccc1)Nc1ccc(F)cc1 | > 100 | 28.7 | > 100 | > 100 |  | > 100 | > 100 | 35 | 34.3 | > 100 | 14.1 | 29.9 | > 100 | 41.1 | 48.7 |  | 28.1 | 63.8 | 40.6 | 66.9
Cn1cc(-c2csc(-c3c[nH]c4ccc(F)cc34)n2)c2cnccc21 | 4.32 | 2.56 | 3.75 | 3.36 |  | 3.25 | 3.16 | 1.73 | 1.46 | 2.93 | 1.22 | 1.98 | 3.98 | 2.22 | 1.67 |  | 2.26 | 5.08 | 1.74 | 2.19
COC1(OC)C(N(C)C)=C(Cl)C(=O)/C1=C/C=O | > 100 | > 100 | > 100 | > 100 | > 100 | > 100 | > 100 |  |  |  |  |  |  |  |  |  |  |  |  | 
O=C(Nc1nc(=S)c2c(ncn2CCOC(=O)c2ccccc2)[nH]1)c1ccccc1 | > 100 | > 100 | > 100 | > 100 |  | > 100 | > 100 |  |  |  |  |  |  |  |  |  |  |  |  | 
COc1ccc(CC2NCCc3c2[nH]c2ccccc32)cc1 (centres undefined) | 53.5 | > 100 | > 100 | > 100 | > 100 | > 100 | > 100 |  |  |  |  |  |  |  |  |  |  |  |  | 
CC1c2c(Cl)nc3ccccc3c2Oc2c1c(Cl)nc1ccccc21 | > 100 | > 100 | > 100 |  | > 100 | > 100 | > 100 |  |  |  |  |  |  |  |  |  |  |  |  | 
Clc1ccc2[nH]cc(-c3nnnn3-c3ccccc3)c2c1 |  | 57.5 | > 31.6 | > 100 | > 53 | 52.7 | > 75.3 | > 44.3 | 33.8 | > 100 | 18.3 | 7.61 | 41.8 | 7.29 | 12 | 11 | 15.4 | > 60.8 | 13.3 | 
N#CC(C(=O)C(=O)C(C#N)c1ccc(Br)cc1)c1ccc(Br)cc1 (centres undefined) | 20.6 | 29.5 | 30.6 | 26.1 | 47.1 | 26.6 | 33.1 |  |  |  |  |  |  |  |  |  |  |  |  | 
CO/N=C(\COc1ccc2c(c1)oc(=O)c1cc(OC)ccc12)c1ccc(OC)cc1 |  | > 100 | > 100 | > 100 | > 100 | > 100 | > 100 | > 100 | > 100 | > 100 | > 100 | > 100 | > 100 | > 100 | > 100 | > 100 | > 100 | > 100 | > 100 | 
CCC(C)COC(=O)c1ccc(N=Cc2ccc(C=Nc3ccc(C(=O)OCC(C)CC)cc3)cc2)cc1 (centres undefined) | > 100 | > 100 |  | > 100 | > 100 | > 100 | > 100 |  |  |  |  |  |  |  |  |  |  |  |  | 
O=C(O)Cc1cc(Cl)ccc1O | > 100 | > 100 | > 100 | > 100 |  | > 100 | > 100 |  |  | > 100 |  |  | > 100 |  |  |  |  | > 100 |  | 
Cc1c2c(C#N)nccc2c(C)c2c1c1ccccc1n2Cc1ccccc1 | > 100 | > 100 | > 100 | > 100 |  | > 100 | > 100 |  |  | > 100 |  |  | > 100 |  |  |  |  | > 100 |  | 
CC(=O)c1sc(Nc2nnc(-c3ccc(-c4nnc(Nc5nc(C)c(C(C)=O)s5)o4)cc3)o2)nc1C | > 100 | > 100 | > 100 | > 100 | > 100 | > 100 | > 10 |  |  |  |  |  |  |  |  |  |  |  |  | 
CC1CN(C(=O)CN2CCC(CCCCN(C)C)CC2)c2ccccc2NC1=O (centres undefined) | > 100 | > 100 |  | > 100 | > 100 | > 100 | > 100 |  |  |  |  |  |  |  |  |  |  |  |  | 
CN=C1CC2c3cc(OC)c(OC)cc3CCN2C2=C1C(=O)CC(C)(C)C2 (centres undefined) | > 100 | > 100 | > 100 |  | > 100 | > 100 |  |  |  |  |  |  |  |  |  |  |  |  |  | 
O=C(/C=C/c1cccc2ccccc12)c1ccccc1Cl | 19.4 | 20.9 | 28.1 | 24.3 | 8.82 |  | 43.1 |  |  |  |  |  |  |  |  |  |  |  |  | 
